We go through 52 compounds from US20170280720A1, “ARGININE […] INHIBITORS AND USES THEREOF” (EPIZYME, INC., priority 2014, published 2017).

T1 sequence (Q99873 with tags, fused parts or gaps): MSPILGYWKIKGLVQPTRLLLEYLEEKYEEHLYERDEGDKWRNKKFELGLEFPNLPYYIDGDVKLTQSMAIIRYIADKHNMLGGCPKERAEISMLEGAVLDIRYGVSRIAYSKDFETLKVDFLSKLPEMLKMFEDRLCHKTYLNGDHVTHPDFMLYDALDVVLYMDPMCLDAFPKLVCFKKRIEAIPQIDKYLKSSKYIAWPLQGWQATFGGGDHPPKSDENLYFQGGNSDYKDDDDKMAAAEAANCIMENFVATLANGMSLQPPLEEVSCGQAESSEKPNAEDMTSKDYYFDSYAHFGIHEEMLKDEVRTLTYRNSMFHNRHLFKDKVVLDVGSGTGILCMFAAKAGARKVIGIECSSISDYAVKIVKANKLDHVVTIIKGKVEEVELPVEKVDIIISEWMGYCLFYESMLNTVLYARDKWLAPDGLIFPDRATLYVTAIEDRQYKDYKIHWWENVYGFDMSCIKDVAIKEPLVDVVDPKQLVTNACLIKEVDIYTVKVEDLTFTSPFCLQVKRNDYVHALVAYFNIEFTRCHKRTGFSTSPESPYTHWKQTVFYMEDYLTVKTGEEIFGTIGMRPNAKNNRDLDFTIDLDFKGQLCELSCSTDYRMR

The experiment has as its target T1, human PRMT1 (Homo sapiens, UniProt Q99873).
T1 construct: GST-tagged PRMT1; made in house; host or cells: High Five insect cells (baculovirus, pFastBacI)
The experiment is described as follows: PRMT1 biochemical assay (3H-SAM Flashplate, peptide substrate). The note with it: read-out: PRMT1_ IC50. From the text:
S-adenosylmethionine (SAM), S-adenosylhomocysteine (SAH), bicine, Tween20, dimethylsulfoxide (DMSO), bovine skin gelatin (BSG), and Tris(2-carboxyethyl)phosphine hydrochloride solution (TCEP) were purchased from Sigma-Aldrich at the highest level of purity possible. ^3H-SAM was purchase from American Radiolabeled Chemicals with a specific activity of 80 Ci/mmol. 384-well streptavidin Flashplates were purchased from PerkinElmer.
Peptide representative of human histone H4 residues 36-50 was synthesized with an N-terminal linker-affinity tag motif and a C-terminal amide cap by 21st Century Biochemicals. The peptide was purified by high-performance liquid chromatography (HPLC) to greater than 95% purity and confirmed by liquid chromatography mass spectrometry (LC-MS). The sequence was Biot-Ahx-[…]-amide (SEQ ID NO.: 1).
Full-length human PRMT1 isoform 1 (NM_001536.5) transcript clone was amplified from an HEK 293 cDNA library, incorporating flanking 5′ sequence encoding a FLAG tag ([…]) (SEQ ID NO.: 2) fused directly to Met 1 of PRMT1. The amplified gene was subcloned into pFastBacI (Life Technologies) modified to encode an N-terminal GST tag and a TEV cleavage sequence ([…] […] […] […] QGGNS)(SEQ ID NO.: 3) fused to Asp of the Flag tag of PRMT1.
Recombinant baculovirus were generated according to Bac-to-Bac kit instructions (Life Technologies). Protein over-expression was accomplished by infecting exponentially growing High Five insect cell culture at 1.5×10^6 cell/ml with 1:100 ratio of virus. Infections were carried out at 27° C. for 48 hours, harvested by centrifugation, and stored at −80° C. for purification.
GST-tagged PRMT1 was eluted with 50 mM Tris, 2 mM glutathione, pH 7.8, dialysed in buffer A and concentrated to 1 mg/mL. The purity of recovered protein was 73%. Reference: Wasilko, D. J. and S. E. Lee: “TIPS: titerless infected-cells preservation and scale-up” Bioprocess J., 5 (2006), pp. 29-32.
General Procedure for PRMT1 Enzyme Assays on Peptide Substrates.
The assays were all performed in a buffer consisting of 20 mM Bicine (pH=7.6), 1 mM TCEP, 0.005% BSG, and 0.002% Tween 20, prepared on the day of use. Compounds in 100% DMSO (1 ul) were spotted into a polypropylene 384-well V-bottom plates (Greiner) using a Platemate Plus outfitted with a 384-channel head (Thermo Scientific). DMSO (1 ul) was added to Columns 11, 12, 23, 24, rows A-H for the maximum signal control and 1 ul of SAH, a known product and inhibitor of PRMT1, was added to columns 11, 12, 23, 24, rows I-P for the minimum signal control. A cocktail (40 ul) containing the PRMT1 enzyme was added by Multidrop Combi (Thermo-Fisher). The compounds were allowed to incubate with PRMT1 for 30 min at room temperature, then a cocktail (10 ul) containing SAM and peptide was added to initiate the reaction (final volume=51 ul). The final concentrations of the components were as follows: PRMT1 was 0.5 nM, ^3H-SAM was 200 nM, non-radiolabeled SAM was 1.5 uM, peptide was 20 nM, SAH in the minimum signal control wells was 1 mM, and the DMSO concentration was 2%. The assays were stopped by the addition of non-radiolabeled SAM (10 ul) to a final concentration of 300 uM, which dilutes the ^3H-SAM to a level where its incorporation into the peptide substrate is no longer detectable. 50 ul of the reaction in the 384-well polypropylene plate was then transferred to a 384-well Flashplate and the biotinylated peptides were allowed to bind to the streptavidin surface for at least 1 hour before being washed once with 0.1% Tween20 in a Biotek ELx405 plate washer. The plates were then read in a PerkinElmer TopCount plate reader to measure the quantity of ^3H-labeled peptide bound to the Flashplate surface, measured as disintegrations per minute (dpm) or alternatively, referred to as counts per minute (cpm).
Where dpm=disintegrations per minute, cmpd=signal in assay well, and min and max are the respective minimum and maximum signal controls. […]
Regarding `CNCCN(C)Cc1cccc(-c2cc(N3CCC3)c3cnn(C(C)C)c3n2)c1` [Compound 79], the 50% inhibitory concentration (IC50) was found to be 341 nM. In the case of `CC(C)n1ncc2c(C(=O)NCc3ccccc3F)cc(-c3cccc(CN(C)CCN)c3)nc21` [Compound 65] it was 271 nM; in that of `CNCCN(C)Cc1cccc(-c2cc(C(=O)NCCCCC(=O)NCc3ccn(C)n3)c3cnn(C(C)C)c3n2)c1` [Compound 122], 725 nM; in that of `CNCCN(C)Cc1cccc(-c2nc(NCc3cn4ccsc4n3)c3cnn(C4CC4)c3n2)c1` [Compound 6], 36.9 nM. `CNCCN(C)Cc1cccc(-c2nc(N3CCOCC3)c3cnn(C(C)C)c3n2)c1` [Compound 99]: the IC50 is 457 nM. In the case of `CC(C)n1ncc2c(NC(=O)N(C)C)cc(-c3cccc(CN(C)CCN)c3)nc21` [Compound 116] it was 640 nM. In the case of `CNCCN(C)Cc1cccc(-c2cc(C(=O)N3CCCCC3)c3cnn(C(C)C)c3n2)c1` [Compound 56] it was 238 nM; in that of `COc1ccccc1Cn1cnc2ccc(-c3ccc(CNCCN)cc3)cc21` [Compound 80], 345 nM; in that of `CCC(O)c1cc(-c2cccc(CN(C)CCNC)c2)nc2c1cnn2C(C)C` (stereo not shown) [Compound 48], 212 nM. In the case of `CNCCN(C)Cc1cccc(-c2cc(C(=O)NCCC(=O)NCC3CCOCC3)c3cnn(C(C)C)c3n2)c1` [Compound 64], the half-maximal inhibitory concentration (IC50) was 271 nM. In the case of `CNCCN(C)Cc1cccc(-c2cc(NC(=O)NC(C)C)c3cnn(C(C)C)c3n2)c1` [Compound 85] it was 391 nM.

For the compound `CNCCN(C)Cc1cccc(-c2cc(C(=O)NCCCC(=O)NCc3ccn(C)n3)c3cnn(C(C)C)c3n2)c1` [Compound 88], the IC50 turned out to be 413 nM.

On to `CNCCN(C)Cc1cccc(-c2cc(C(=O)NCCCC(=O)NCC3CCOCC3)c3cnn(C(C)C)c3n2)c1` [Compound 60], for which the IC50 came to 248 nM.

Turning to `CNCCN(C)Cc1cccc(-c2nc(N(C)C3CCOCC3)c3cnn(C4CC4)c3n2)c1` [Compound 109, N1-(3-(1-cyclopropyl-4-(methyl(tetrahydro-2H-pyran-4-yl)amino)-1H-pyrazolo[3,4-d]pyrimidin-6-yl)benzyl)-N1,N2-dimethylethane-1,2-diamine], the IC50 was 570 nM. Take `CNCCN(C)Cc1cccc(-c2cc(C(=O)NCCC(=O)NCc3ccn(C)n3)c3cnn(C(C)C)c3n2)c1` [Compound 83]: the 50% inhibitory concentration (IC50) was 378 nM. Take `CNCCN(C)Cc1cccc(-c2cc(C(=O)NCc3cc(C)nn3C)c3cnn(C(C)C)c3n2)c1` [Compound 120]: the IC50 amounted to 718 nM. To `CNCCN(C)Cc1cccc(-c2cnc3c(c2)c(C2CC2)nn3CC2CCOCC2)c1` [Compound 4] belongs 34.8 nM; to `Cc1cccc(-n2cnc3ccc(-c4ccc(CNCCN)cc4)cc32)c1` [Compound 106], 558 nM; to `CNCCN(C)Cc1cccc(-c2cc(N3CCOCC3)c3cnn(C(C)C)c3n2)c1` [Compound 68], 277 nM. Regarding `CC(C)n1ncc2c(C(=O)NCC3CCOCC3)cc(-c3cccc(CN(C)CCN)c3)nc21` [Compound 108], the half-maximal inhibitory concentration (IC50) stood at 568 nM. Consider `CC(C)n1ncc2c(C(=O)N[C@@H](C)c3ccccc3)cc(-c3cccc(CNCCN)c3)cc21` [Compound 125], for which the IC50 came out at 783 nM. Take `CNCCN(C)Cc1cccc(-c2cc(C(=O)NCCCCCC(=O)NCC3CCOCC3)c3cnn(C(C)C)c3n2)c1` [Compound 112]: the IC50 was found to be 588 nM. In the case of `Cc1ccc(Cn2cnc3ccc(-c4ccc(CNCCN)cc4)cc32)cc1` [Compound 97] it was 452 nM; in that of `COc1cccc(-n2cnc3ccc(-c4ccc(CNCCN)cc4)cc32)c1` [Compound 110], 583 nM. To `CC(C)n1cc2c(Cl)cc(-c3cccc(CN(C)CCN)c3)nc2n1` [Compound 59] belongs 244 nM; to `CNCCN(C)Cc1cccc(-c2ccc3cnn(C(C)C)c3n2)c1` [Compound 73], 306 nM; to `CNCCN(C)Cc1cccc(-c2cc(NC3CCOCC3)c3cnn(C(C)C)c3n2)c1` [Compound 76], 317 nM.

For `COc1cccc(CCn2cnc3ccc(-c4ccc(CNCCN)cc4)cc32)c1` [Compound 94], the IC50 worked out at 446 nM. To `CN(CCN)Cc1cccc(-c2nc(NC3CC3)c3cnn(C4CC4)c3n2)c1` [Compound 96] belongs 451 nM; to `CNCCN(C)Cc1cccc(-c2nc(NCc3cnn(C)c3C)c3cnn(C4CC4)c3n2)c1` [Compound 57], 238 nM. Turning to `CC(C)NC(=O)Nc1cc(-c2cccc(CN(C)CCN)c2)nc2c1cnn2C(C)C` [Compound 86], the IC50 worked out at 397 nM. As to `CNCCN(C)Cc1cccc(-c2nc(NC3CC3)c3cnn(C4CC4)c3n2)c1` [Compound 114], the IC50 came out at 617 nM. To `Cc1c(CNc2nc(-c3cccc(CN(C)CCN)c3)nc3c2cnn3C2CC2)cnn1C` [Compound 52] belongs 226 nM; to `CN(CCN)Cc1cccc(-c2nc(N(C)C3CCOCC3)c3cnn(C4CC4)c3n2)c1` [Compound 119], 714 nM. Consider `Cc1ccccc1Cn1cnc2ccc(-c3ccc(CNCCN)cc3)cc21` [Compound 82], for which the IC50 came to 375 nM.

`CNCCN(C)Cc1cccc(-c2cc(NC(=O)N(C)C)c3cnn(C(C)C)c3n2)c1` [Compound 123]: the IC50 worked out at 766 nM. To `CNCCN(C)Cc1cccc(-c2nc(NCc3ccncc3)c3cnn(C4CC4)c3n2)c1` [Compound 69] belongs 282 nM.

Turning to `CN(CCN)Cc1cccc(-c2nc(NCc3cn4ccsc4n3)c3cnn(C4CC4)c3n2)c1` [Compound 5], the IC50 was 36.9 nM. As to `CC(C)n1ncc2c(NS(=O)(=O)N(C)C)cc(-c3cccc(CN(C)CCN)c3)nc21` [Compound 107], the concentration for half-maximal inhibition (IC50) came to 562 nM. In the case of `CNCCN(C)Cc1cccc(-c2cc(C(=O)NCCCCC(=O)NCC3CCOCC3)c3cnn(C(C)C)c3n2)c1` [Compound 118], the IC50 was determined as 668 nM. On to `CNCCN(C)Cc1cccc(-c2cc(N(C)C)c3cnn(C(C)C)c3n2)c1` [Compound 103], for which the IC50 came to 517 nM. With `NCCNCc1ccc(-c2ccc3ncn(Cc4ccc(C(=O)N5CCCC5)cc4)c3c2)cc1` [Compound 104], the IC50 came out at 531 nM. To `COc1cccc(Cn2cnc3ccc(-c4ccc(CN(C)CCN)cc4)cc32)c1` [Compound 8] belongs 47 nM. Take `CNCCN(C)Cc1cccc(-c2cc(OC)c3cnn(C(C)C)c3n2)c1` [Compound 124]: the 50% inhibitory concentration (IC50) was 770 nM.

For the compound `CNCCN(C)Cc1cccc(-c2cc(N3CCC(C#N)CC3)c3cnn(C(C)C)c3n2)c1` [Compound 93], the IC50 turned out to be 433 nM. In the case of `NCCNCc1ccc(-c2ccc3ncn(CC4CCCNC4)c3c2)cc1` (stereo not shown) [Compound 81] it was 359 nM. For the compound `CNCCN(C)Cc1cccc(-c2cc(N3CCCC(C#N)C3)c3cnn(C(C)C)c3n2)c1` (stereo not shown) [Compound 55], the concentration for half-maximal inhibition (IC50) was determined as 236 nM. On to `CNCCN(C)Cc1cccc(-c2ccc3cnn(C(C)C)c3c2)c1` [Compound 100], for which the IC50 is 477 nM.

For `CC(C)n1ncc2c(NC3CCOCC3)cc(-c3cccc(CN(C)CCN)c3)nc21` [Compound 101], the IC50 was found to be 488 nM. As for `CC(C)n1ncc2c(C(=O)N(C)[C@@H](C)c3ccccc3)cc(-c3cccc(CN(C)CCN)c3)cc21` [Compound 3], the IC50 was 26.7 nM. `CNCCN(C)Cc1cccc(-c2cc(C#N)c3cnn(C(C)C)c3n2)c1` [Compound 74]: the 50% inhibitory concentration (IC50) is 309 nM.

Regarding `CNCCN(C)Cc1cccc(-c2nc(NCc3ccccn3)c3cnn(C4CC4)c3n2)c1` [Compound 9], the IC50 is 47.3 nM.
